The values below come from ChEMBL document CHEMBL1150368, “Detection of triplet repeat sequences in the double-stranded DNA using pyrene-functionalized pyrrole-imidazole polyamides with rigid linkers” (Bioorg Med Chem, 2008).

The assay in a line: Binding affinity to biotinylated hairpin DNA by surface plasmon resonance assay. Background: SPR reads the build-up and loss of mass on a sensor chip optically.

A word on the Kd: it is the equilibrium constant for the complex coming apart. A lower Kd goes with higher affinity. For the molecule `CC(=O)Nc1cn(C)c(C(=O)Nc2cc(C(=O)NCCC(=O)Nc3cn(C)c(C(=O)Nc4cc(C(=O)NCCCC(=O)Nc5cn(C)c(C(=O)Nc6cc(C(=O)NCCC(=O)Nc7cn(C)c(C(=O)Nc8cc(C(=O)NCCC(=O)NCCCN(C)C)n(C)c8)n7)n(CC#Cc7ccc8ccc9cccc%10ccc7c8c9%10)c6)n5)n(CC#Cc5ccc6ccc7cccc8ccc5c6c78)c4)n3)n(C)c2)n1`, the affinity, expressed as Kd, was 837 nM.
